Results published in patent US20230115335A1, “PYRAZOLE DERIVATIVES WITH ANTICANCER ACTIVITY” (BOARD OF REGENTS, THE UNIVERSITY OF TEXAS SYSTEM, priority 2021, published 2023).
“Also recorded” adds a separate entry of the source. Read-outs that look alike come from different tables or passages of the source.

Experiments:
CEM cell line = assay: DNS cytotoxicity assay, CEM; format: cell-based, human
Description: […] […] After treatment, images were acquired and analyzed to determine percentages of live/dead cells and their cytotoxicity. […] The Hs-27 non-cancerous human foreskin fibroblast cell line was used for comparison purposes.

MDA-MB231 = assay: DNS cytotoxicity assay, MDA-MB-231; format: cell-based; details: Homo sapiens
Experimental: (§1) Since the non-adherent (free floating) lymphoma/leukemia cell lines divide faster than the adherent cell lines, they were incubated for a shorter period (48 h) of time with the compound.
(§2) Lymphoma/leukemia cell lines, which grow in suspension, were incubated for 48 h with the compounds. […] After treatment, images were acquired and analyzed to determine percentages of live/dead cells and their cytotoxicity. […] The Hs-27 non-cancerous human foreskin fibroblast cell line was used for comparison purposes.

[1] = DNS cytotoxicity assay, MCF10A; format: cell-based; details: human, MCF10A non-cancerous cells, 72 hr incubations, read-out: Cell Line CC50 MCF10A*
Experimental: as §1

[2] = DNS cytotoxicity assay, HS-27 non-cancerous fibroblast; format: cell-based; details: human, Hs-27 non-cancerous foreskin fibroblast cells
Experimental: as §1, §2

CEM cells [3] = assay: Phosphatidylserine externalization, Annexin V-FITC/PI assay; format: cell-based, human
Experimental: FIG. 1. […] CEM cells were treated at the CC50 and twice (2×) that concentration of SSK-3. Note that PS externalization is an early marker of apoptosis. * Indicates P value less than 0.001.
SSK-3 induces significant phosphatidylserine externalization. To corrobotate whether SSK-3 utilizes apoptosis to induce cell death, we measured phosphatidylserine (PS) externalization in SSK-3-treated CEM cells by using the Annexin V-FITC/PI assay (3, 4).

RAMOS = assay: DNS cytotoxicity assay, RAMOS; format: cell-based; details: Homo sapiens, Lymphoma-Leukemia, 48 hrs
Description: (§3) Using the high throughput Differential Nuclear Staining (DNS) screening assay (Lema et al., Current Cellular Biochemistry 1, 1-14, 2011) 15 pyrazole compounds were synthesized and screened on the human T-cell Acute Lymphoblastic Leukemia CEM cell line (Tables 1 and 2). […] The compounds were synthesized based on a pyrazole backbone structure previously determined to have potent cytotoxic activity (FIG. 5). Several commercial and non-commercial analogues (see Table 3) have been tested and determined that the ones with highest activity have a similar structure circled in FIG. 5. […] SSK-3 has been tested on a few cancer cell lines (see Table 4) and also found to induce programmed cell death via a variety of biochemical assays. […] Since the non-adherent (free floating) lymphoma/leukemia cell lines divide faster than the adherent cell lines, they were incubated for a shorter period (48 h) of time with the compound.
(§4) SSK-3 has potent cytotoxic activity against a panel of human cancer cell lines. The cytotoxic activity of SSK-3 was examined by the DNS assay (Lema et al., Current Cellular Biochemistry 1, 1-14, 2011). Lymphoma/leukemia cell lines, which grow in suspension, were incubated for 48 h with the compounds. […] After treatment, images were acquired and analyzed to determine percentages of live/dead cells and their cytotoxicity. […]

HL-60 = assay: DNS cytotoxicity assay, HL-60; format: cell-based; details: Homo sapiens, Lymphoma-Leukemia, 48 hrs
Description: as §3, §4

Jurkat = assay: DNS cytotoxicity assay, Jurkat; format: cell-based, human
Description: as §3
SSK-3 has potent cytotoxic activity against a panel of human cancer cell lines. The cytotoxic activity of SSK-3 was examined by the DNS assay (Lema et al., Current Cellular Biochemistry 1, 1-14, 2011). Lymphoma/leukemia cell lines, which grow in suspension, were incubated for 48 h with the compounds. Since the adherent cells generally divide at a slower rate than the non-adherent cell lines, the MDA-MB231, HCC1419, T47D, COLO205, PANC-1, A-549 adherent cancer cells lines were incubated for 72 h in the presence of the compounds. After treatment, images were acquired and analyzed to determine percentages of live/dead cells and their cytotoxicity. […] The Hs-27 non-cancerous human foreskin fibroblast cell line was used for comparison purposes.

NALM-6 = assay: DNS cytotoxicity assay, NALM-6; format: cell-based; details: Homo sapiens, Lymphoma-Leukemia, 48 hrs
Description: as §3, §4

K562 = assay: DNS cytotoxicity assay, K562; format: cell-based; details: Homo sapiens, Lymphoma-Leukemia, 48 hrs
Description: as §3, §4

MiNO = assay: DNS cytotoxicity assay, MiNO; format: cell-based; details: Homo sapiens, Mantle cell Lymphoma, 48 or 72 hrs
Description: as §3, §4

Jeko-1 = assay: DNS cytotoxicity assay, Jeko-1; format: cell-based; details: Homo sapiens, Mantle cell Lymphoma, 48 or 72 hrs
Description: as §3, §4

Z138 = assay: DNS cytotoxicity assay, Z138; format: cell-based; details: Homo sapiens, Z-138; Mantle cell Lymphoma; 48 or 72 hrs
Description: as §3, §4

JVM-2 = assay: DNS cytotoxicity assay, JVM-2; format: cell-based; details: Homo sapiens, Mantle cell Lymphoma, 48 or 72 hrs
Description: as §3, §4

JVM-13 = assay: DNS cytotoxicity assay, JVM-13; format: cell-based; details: Homo sapiens, JVM13; Mantle cell Lymphoma; 48 or 72 hrs
Description: as §3, §4

MM.1S = assay: DNS cytotoxicity assay, MM.1S; format: cell-based; details: Homo sapiens, MM1.S; Multiple Myeloma; 48 or 72 hrs
Description: as §3, §4

MM.1R = assay: DNS cytotoxicity assay, MM.1R; format: cell-based; details: Homo sapiens, Multiple Myeloma, 48 or 72 hrs
Description: as §3, §4

U226 = assay: DNS cytotoxicity assay, U226; format: cell-based; details: Homo sapiens, Multiple Myeloma, 48 or 72 hrs
Description: as §3, §4

RPMI-8226 = assay: DNS cytotoxicity assay, RPMI-8226; format: cell-based; details: Homo sapiens, Multiple Myeloma, 48 or 72 hrs
Description: as §3, §4

MDA-468 = assay: DNS cytotoxicity assay, MDA-468; format: cell-based; details: Homo sapiens; Breat Cancer; 72 hrs
Description: as §3, §4

HCC1419 = assay: DNS cytotoxicity assay, HCC1419; format: cell-based; details: Homo sapiens, Breat Cancer, 72 hrs
Description: as §3, §4

T47D = assay: DNS cytotoxicity assay, T47D; format: cell-based; details: Homo sapiens, Breat Cancer, 72 hrs
Description: as §3, §4

PANC-1 = assay: DNS cytotoxicity assay, PANC-1; format: cell-based; details: Homo sapiens, Pancreatic cancer, 72 hrs
Description: as §3, §4

Colo 205 = assay: DNS cytotoxicity assay, Colo 205; format: cell-based; details: Homo sapiens, Colon Cancer, 72 hrs
Description: as §3, §4

CEM cells [4] = assay: Mitochondrial depolarization; format: cell-based, human; details: CC50 and 2×CC50
Experimental: (§5) FIG. 2A-2C. […] CEM cells were treated at the CC50 and twice (2×) that concentration of SSK-3.
(§6) SSK-3 induces caspase-3 activation. Mitochondrial depolarization is one of the salient features of cell-death induction and this was observed after treatment of CEM cells with SSK-3 (FIG. 2A). […] CEM cells were treated with SSK-3 for 7 h and subsequently stained with the NucView caspase-3 substrate and analyzed via flow cytometry (Gutierrez et al., Cell biology and toxicology 35, 503-19, 2019) (FIG. 2B).

caspase-3 in CEM cells = assay: Caspase-3 activation, NucView substrate, flow cytometry; format: cell-based, human; details: 7 h, P<0.05 vs DMSO control
Experimental: as §5, §6

CEM cells [5] = assay: Generation of Reactive Oxygen Species; format: cell-based, human; details: CC50 and 2×CC50
[6] = test system: membrane microtubule organization; assay: Membrane microtubule organization; format: cell-based; details: 2 hours; vs DMSO control
cell cycle = assay: Cell cycle arrest; format: cell-based; details: data not shown
Tubulin = Tubulin polymerization, biochemical assays
HL-60 leukemia cell line = assay: Apoptosis induction in HL-60; format: cell-based
CEM cells [7] = assay: Mode of cell death: intrinsic apoptosis pathway; format: cell-based, human
Experimental: as §5
These compounds were tested in mice at a concentration of 160 mg/kg and after 3-4 daily doses, animals tolerated the treatments well. Different cytotoxicity patterns of the compounds against distinct cell lines has been noted, and it is therefore possible that distinct pyrazoles will act on distinct cellular effectors with different modes of action. However, all of the pyrazole compounds so far tested including SSK-3 induce cell death via the intrinsic apoptosis pathway as will be described below.

[8] = Homo sapiens, CCRF-CEM, Initial Screen, DNS assay, read-out: CEM CC50
[9] = 72 hr incubations, read-out: Cell Line CC50 MDA-MD-231*
[10] = 72 hr incubations, non-cancerous, read-out: Cell Line CC50 HS-27*

## O=C1Nc2ccccc2/C1=N/NC(=O)c1n[nH]c2c1CCC2 [SSK-1]
CEM cell line; [8]
  CC50: 12.1 ± 1.11 µM

## O=C(N/N=C/c1c(O)ccc2ccccc12)c1n[nH]c2c1CCCC2 [P3C.3]
MDA-MB231; [9]
  CC50: 1.61 µM
[1]
  CC50 at 72 h: 2.16 µM
[2]; [10]
  CC50 at 72 h: > 10 µM

## Cc1ccc(-c2nn(-c3ccccc3)cc2/C=N/NC(=O)c2n[nH]c3c2CCC3)cc1 [SSK-8]
CEM cell line; [8]
  CC50: 3.6 ± 0.16 µM

## O=C(N/N=C/c1ccc(OCc2cn(Cc3ccc([N+](=O)[O-])cc3)nn2)cc1)c1n[nH]c2c1CCC2 [SSK-15]
CEM cell line; [8]
  CC50: > 10 µM

## OO [H2O2, reference compound]
CEM cells [3]; positive control for death
  percentage of PS externalization: ~78%

## O=C(N/N=C/c1cccc2ccccc12)c1n[nH]c2c1CCC2 [P3C.2]
MDA-MB231; [9]
  CC50: 1.83 µM
[1]
  CC50 at 72 h: 0.53 µM
[2]; [10]
  CC50 at 72 h: 4.1 µM

## O=C(N/N=C1\C(=O)N(CN2CCOCC2)c2ccccc21)c1n[nH]c2c1CCC2 [SSK-5]
CEM cell line; Homo sapiens, CCRF-CEM, read-out: CEM CC50
  CC50: > 10 µM

## Cc1ccc2c(c1)/C(=N/NC(=O)c1n[nH]c3c1CCC3)C(=O)N2 [SSK-3, N-(5-methyl-2-oxoindolin-3ylidene)-1,4,5,6-tetrahydrocyclopenta[c]pyrazole-3-carbohydrazide]
CEM cell line; Homo sapiens, CCRF-CEM, 48 h, Table 4, Lymphoma-Leukemia, 48 hrs, read-out: CC50 CEM
  CC50: 1.4 µM
CEM cell line; Initial Screen, DNS assay, read-out: CEM CC50
  CC50: 1.39 ± 0.68 µM
MDA-MB231; Table 4, Breat Cancer, 72 hrs, read-out: CC50 MDA-MB231
  CC50: 2.3 µM
[2]; Table 4, Normal Fibroblast, 72 hrs, read-out: CC50 HS27
  CC50 at 72 h: 15.4 µM
RAMOS
  CC50: 1.65 µM
HL-60
  CC50: 0.75 µM
Jurkat; CC50 HS27 / CC50 Jurkat
  times more cytotoxic toward Jurkat than HS27: 37 times
Jurkat; Homo sapiens, Jurkat, Lymphoma-Leukemia, 48 hrs
  CC50: 0.42 µM
NALM-6
  CC50: 2.04 µM
K562
  CC50: 2.13 µM
MiNO
  CC50: 1.07 µM
Jeko-1
  CC50: 1.24 µM
Z138
  CC50: 3.36 µM
JVM-2
  CC50: 0.79 µM
JVM-13
  CC50: 0.79 µM
MM.1S
  CC50: 4.61 µM
MM.1R
  CC50: 3.88 µM
U226
  CC50: 4.44 µM
RPMI-8226
  CC50: 2.47 µM
MDA-468
  CC50: 3.98 µM
HCC1419
  CC50: > 20 µM
T47D
  CC50: 3.87 µM
PANC-1
  CC50: 1.86 µM
Colo 205
  CC50: 2.43 µM
CEM cells [3]; CC50 and 2×CC50 (0.24 and 0.48 μM printed), vs solvent control
  PS externalization: induces significant PS externalization in a dose-response manner; also recorded: Induction of Phosphatidylserine (PS) externalization
CEM cells [4]
  Mitochondrial depolarization: Mitochondrial depolarization was observed
caspase-3 in CEM cells
  caspase-3 activation: induced a statistically significant activation of caspase-3; also recorded: Activation of Caspase 3 was detected
CEM cells [5]
  Generation of Reactive Oxygen Species (ROS): led to the generation of Reactive Oxygen Species (ROS)
[6]
  disruption of membrane microtubule organization: severe disruption of membrane microtubule organization
Cell cycle
  cell cycle arrest: cause cell cycle arrest and interfere with cellular replication
Tubulin
  Tubulin polymerization inhibition: inhibiting tubulin polymerization
HL-60 leukemia cell line
  induction of apoptosis: induced apoptosis via mitochondrial depolarization and phosphatidylserine membrane exposure
CEM cells [7]
  induction of the intrinsic apoptosis pathway: induces the intrinsic apoptosis pathway

## COc1ccc(/C=N/NC(=O)c2n[nH]c3c2CCC3)cc1O [P3C.10]
MDA-MB231; [9]
  CC50: 2.91 µM
[1]
  CC50 at 72 h: 2.46 µM
[2]; [10]
  CC50 at 72 h: > 10 µM

## O=C(N/N=C/c1cn(-c2ccccc2)nc1-c1ccc(Cl)cc1)c1n[nH]c2c1CCC2 [SSK-10]
CEM cell line; [8]
  CC50: 7.83 ± 0.13 µM

## Cc1ccc(Cn2cc(COc3ccc(/C=N/NC(=O)c4n[nH]c5c4CCC5)cc3)nn2)cc1 [SSK-13]
CEM cell line; [8]
  CC50: > 10 µM
